Where two headings read alike, the source gives them in different places. Values belong to the compound of their own block, whether it stands above or below them.
Tests used:
[1] = system: conscious instrumented Dog; test: Cardiotonic activity in the conscious instrumented Dog; assay type: in vivo, dog (male Beagle); settings: Canis lupus familiaris, po; for change in vivo at 0.03 mg/kg: 0.03 mg/kg p.o.; for change in vivo at 0.3 mg/kg: 0.30 mg/kg p.o.; for change in vivo at 3 mg/kg: 3.00 mg/kg p.o.; for change in vivo at 0.01 mg/kg: 0.01 mg/kg p.o.; for change in vivo at 1 mg/kg: 1.00 mg/kg p.o.; for change in vivo at 10 mg/kg: 10.00 mg/kg p.o.
Experimental: Cardiotonic activity in the conscious instrumented Dog
Male Beagle dogs, at least 2 years old, weighing 12 to 18 kg were anaesthetised with pentobarbital sodium (30 mg/kg i.v.). Respiration was maintained by a Harward pump, model 613a. The heart was exposed through a left thoracotomy and a pericardial cardle was formed. A high fidelity micromanometer (Koenigsberg P5 -P7) was inserted into left venitricular lumen through a stab incision at the apex. Wires were exteriorised to the back of the animals, placed into a size adapted jacket, and the chest closed. The experiments were conducted on the conscious dogs, 1 or 2 weeks after the surgery, when the animals had completely recovered.
Measured parameters were : first derivative of left ventricular pressure, (dP/dt, mmHg/sec); heart rate (HR, beats/min.). A control period recording of 90 min. was made with the dogs placed in a quiet room, the recordings being made outside. Compounds to be tested were administered orally in gelatin capsules and the parameters measured for 5 hrs. at least.
Results were expressed as the percentage of the maximum±SEM.

[2] = system: Canine cardiac myofibrillar Ca++-dependent Mg++ ATPase; test: Measurement of myofibrillar Ca++-dependent Mg++ATPase activity (Ca++ sensitivity and maximal activity); assay type: biochemical, canine (dog); settings: pH 7.0, 21° C.
Experimental: 1. Measurement of myofibrillar Ca++-dependent Mg++ATPase activity
the effect on myofibrillar Ca++sensitivity and on maximal activity of myofibrillar Ca++-dependent Mg++-ATPase was determined on canine cardiac myofibrils.
(a) Contractile protein preparation
Cardiac myofibrils free of membrane contaminants were prepared from left ventricular tissue of dog hearts using a modification of the method described by SOLARO et al, Biochem. Biophys. Acta, 245, 259-262, (1971). Before centrifugration, the heart homogenate was filtered through gauze.
After Triton X-100 treatments, the myofibrillar fraction was washed once by resuspension and centrifugation in 10 volumes of 1 mM EGTA, […], 30 mM imidazole, 2 mM MgCl2, pH 7.0. The pellet was then washed three times in 10 volumes of the same buffer without EGTA. Before the last centrifugation, the suspension of myofibrils was filtered through a stainless steel sieve with 0.25 mm meshes.
Myofibrils were kept in pellet overnight. Before use, the pellet was suspended in a small amount of buffer, the protein concentration was determined by the method of BRADFORD M., Anal. Biochem., 1976, 72, 248 and adjusted in order to have a concentration between 6 and 7 mg/ml.
(b) Myofibrillar ATPase activity
Ca++-dependent myfibrillar ATPase activity was determined at 21° C., pH 7.0, by measuring the rate of release of inorganic phosphate. All assays were performed within 24 hrs. of final purification, using the method described by SOLARO and RUEGG, CIRC. RES., 51, 290-4, (1982). Reaction mixtures (4 ml) containing 0.6-0.7 mg/ml myofibrillar protein, 80 mM KCl, 20 mM imidazole, 3 mM […], 1 mM EGTA, the desired amount of CaCl2, and the indicated concentration of drug or appropriate vehicle were preincubated for 6 min. prior to assay. The amount of CaCl2 was varied between 0 and 0.9 mM and the pCA (-log free Ca++) computed using 2.514×10^6 M^-1 as the apparent affinity of Ca++for EGTA at pH 7.0.
Reactions were initiated by the addition of Na2 ATP to final concentration of 2 mM. After an incubation period of 12 min., reactions were quenched by the addition of an equal volume of ice-cold 10% trichloroacetic acid. The protein was pelleted by centrifugation (2000 g, 15 min.) and Pi was assayed in the supernatant fraction using a modification of the method described by LANZETTA et al, Anal. Biochem., 100, 95-97, (1979).
The following solutions were prepared:
(1) 3.7% ammonium heptamolybdate in 0.12N H2 SO4
(2) 0.074% malachite green oxalate in 1% polyvinylic alcohol.
the colour reagent was prepared by mixing an equal volume of solution (1) and (2) 15 min. before the assay. For the assay, 1700 μl of 1% H2 SO4 and 1 ml of colour reagent were added to 100 μl of sample. Colour development occurred at room temperature for 30 min. and was quenched by the addition of 200 μl of 1M tri-potassium citrate. The absorbance was measured at 620 millimicrons.
The effect of each compound, tested at the indicated concentration, on the relation between pCa and percent activation was determined taking 100% for the maximum ATPase activity obtained with vehicle alone. The effect on Ca++ sensitivity was quantified by measuring the shift of the pCa giving 50% of the maximal control ATPase activity.
The effect on maximal ATPase activity was expressed as the percent change of ATPase activity for pCa=5.47.

[3] = read-out: H.R. (heart rate), percentage of the maximum ± SEM
[4] = read-out: dP/dt Max (first derivative of left ventricular pressure), percentage of the maximum ± SEM

Structure (SMILES): CC1SC(=O)NN=C1c1ccc2c(c1)C(C)(C)C(=O)N2C(=O)c1ccccc1 (stereo not shown) [Example 22, 1-Benzoyl-1,3-dihydro-5-(3,6-dihydro-6-methyl-2-oxo-2H-1,3,4-thiadiazin-5-yl)-3,3-dimethyl-2H-indol-2-one]
change in vivo at 0.03 mg/kg [1, 3]: 14%
change in vivo at 0.03 mg/kg [1, 4]: 56%

Max ATPase activity (%) (percent change of ATPase activity for pCa=5.47) ([2]; 20 × 10^-5 molar): -3 ± 2%
Ca2+ sensitivity p CA50 (shift of the pCa giving 50% of the maximal control ATPase activity) ([2]; 20 × 10^-5 molar): 0.38 ± 0.03
Structure (SMILES): CSC1(C)C(=O)Nc2ccc(C3=NNC(=O)SC3)cc21 (stereo not shown) [Example 1, 1,3-Dihydro-5-(3,6-dihydro-2-oxo-2H-1,3,4-thiadiazin-5-yl)-3-methyl-3-methylthio-2H-indol-2-one]
change in vivo at 0.3 mg/kg [1, 3]: 17%
change in vivo at 0.3 mg/kg [1, 4]: 53%

Max ATPase activity (%) (percent change of ATPase activity for pCa=5.47) ([2]; 3 × 10^-5 molar): -17 ± 4%
Ca2+ sensitivity p CA50 (shift of the pCa giving 50% of the maximal control ATPase activity) ([2]; 3 × 10^-5 molar): 0.41 ± 0.07
Structure (SMILES): CC1SC(=O)NN=C1c1ccc2c(c1)C1(CCCCC1)C(=O)N2 (stereo not shown) [Example 17]
change in vivo at 3 mg/kg [1, 3]: 9%
change in vivo at 3 mg/kg [1, 4]: 40%

Max ATPase activity (%) (percent change of ATPase activity for pCa=5.47) ([2]; 20 × 10^-5 molar): -2 ± 3%
Ca2+ sensitivity p CA50 (shift of the pCa giving 50% of the maximal control ATPase activity) ([2]; 20 × 10^-5 molar): 0.37 ± 0.06
Structure (SMILES): CC(=O)N1C(=O)C(C)(C)c2cc(C3=NNC(=O)SC3C)ccc21 (stereo not shown) [Example 7, 1-Acetyl-1,3-dihydro-5-(3,6-dihydro-6-methyl-2-oxo-H-1,3,4-thiadiazin-5-yl)3,3-dimethyl-2H-indol-2-one]
change in vivo at 0.01 mg/kg [1, 3]: 9%
change in vivo at 0.01 mg/kg [1, 4]: 41%

Max ATPase activity (%) (percent change of ATPase activity for pCa=5.47) ([2]; 3 × 10^-5 molar): +2 ± 2%
Ca2+ sensitivity p CA50 (shift of the pCa giving 50% of the maximal control ATPase activity) ([2]; 3 × 10^-5 molar): 0.15 ± 0.01
Structure (SMILES): CC1SC(=O)NN=C1c1ccc2c(c1)C(C)(C)C(=O)N2C(=O)Oc1ccccc1 (stereo not shown) [Example 40, Phenyl 2,3-dihydro-5-(3,6-dihydro-6-methyl-2-oxo-2H-1,3,4-thiadiazin-5-yl)-3,3-dimethyl-2-oxo-1H-indole-1-carboxylate]

Max ATPase activity (%) (percent change of ATPase activity for pCa=5.47) ([2]; 3 × 10^-5 molar): +2 ± 5%
Ca2+ sensitivity p CA50 (shift of the pCa giving 50% of the maximal control ATPase activity) ([2]; 3 × 10^-5 molar): 0.47 ± 0.10
Structure (SMILES): CC1SC(=O)NN=C1c1ccc2c(c1)C1(CCCC1)C(=O)N2C(=O)c1ccncc1 (stereo not shown) [Example 27, 5'-(3 6-Dihydro-6-methyl-2-oxo-2H-1,3,4-thiadiazin-5-yl)-1'-[(4 pyridyl)carbonyl]-spiro[cyclopentane-1,3'-[3H]indol]-2'(1'H)-one]
change in vivo at 1 mg/kg [1, 3]: 15%
change in vivo at 1 mg/kg [1, 4]: 63%

Max ATPase activity (%) (percent change of ATPase activity for pCa=5.47) ([2]; 20 × 10^-5 molar): -6 ± 2%
Ca2+ sensitivity p CA50 (shift of the pCa giving 50% of the maximal control ATPase activity) ([2]; 20 × 10^-5 molar): 0.15 ± 0.03
Structure (SMILES): CC1C(=O)Nc2ccc(C3=NNC(=O)SC3)cc21 (stereo not shown) [Example 4, 1,3-Dihydro-5-(3,6-dihydro-2-oxo-2H-1,3,4-thiadiazin-5-yl)-3-methyl-2H-indol-2-one]

Structure (SMILES): CC1SC(=O)NN=C1c1ccc2c(c1)C1(CC1)C(=O)N2 (stereo not shown) [Example 16, 5'-(3,6-Dihydro-6-methyl-2-oxo-2H-1,3,4 thiadiazin-5-yl) -spiro[cyclopropane-1,3'-[3H]indol]-2'-(1'H)-one]
change in vivo at 0.03 mg/kg [1, 3]: 21%
change in vivo at 0.03 mg/kg [1, 4]: 105%

Max ATPase activity (%) (percent change of ATPase activity for pCa=5.47) ([2]; 3 × 10^-5 molar): -9 ± 5%
Ca2+ sensitivity p CA50 (shift of the pCa giving 50% of the maximal control ATPase activity) ([2]; 3 × 10^-5 molar): 0.36 ± 0.02
Structure (SMILES): CSC1C(=O)Nc2ccc(C3=NNC(=O)SC3C)cc21 (stereo not shown) [Example 10, 1,3-Dihydro-5-(3,6-dihydro-6-methyl-2-oxo-2H-1,3,4-thiadiazin-5-yl)-3-methylthio-2H-indol-2-one]

Structure (SMILES): CSC1(C)C(=O)N(C(C)=O)c2ccc(C3=NNC(=O)SC3)cc21 (stereo not shown) [Example 9, 1-Acetyl-1,3-dihydro-5-(3,6-dihydro-2-oxo-2H-1,3,4-thiadiazin-5-yl)-3-methyl-3-methylthio-2H-indol-2-one]
change in vivo at 10 mg/kg [1, 3]: 16%
change in vivo at 10 mg/kg [1, 4]: 68%

Structure (SMILES): CC1NC(=O)NN=C1c1ccc2c(c1)C(C)(C)C(=O)N2 (stereo not shown) [Example 37, 1,3-Dihydro-5-(1,2,3,6-tetrahydro-6-methyl-2-oxo-1,3,4-triazin-5-yl)-3,3-dimethyl-2H-indol-2-one]
change in vivo at 0.03 mg/kg [1, 3]: 24%
change in vivo at 0.03 mg/kg [1, 4]: 85%

Structure (SMILES): CC1SC(=O)NN=C1c1ccc2c(c1)C(=O)C(=O)N2 (stereo not shown) [Example 12, 5-(3,6-Dihydro-6-methyl-2-oxo-2H-1,3,4-thiadiazin-5-yl)-1H-indole-2,3-dione]
change in vivo at 0.3 mg/kg [1, 3]: 10%
change in vivo at 0.3 mg/kg [1, 4]: 51%

Max ATPase activity (%) (percent change of ATPase activity for pCa=5.47) ([2]; 20 × 10^-5 molar): -9 ± 2%
Ca2+ sensitivity p CA50 (shift of the pCa giving 50% of the maximal control ATPase activity) ([2]; 20 × 10^-5 molar): 0.16 ± 0.07
Structure (SMILES): CC1(C)C(=O)Nc2ccc(C3=NNC(=O)SC3)cc21 [Example 2, 1,3-Dihydro-5-(3,6-dihydro-2-oxo-2H-1,3,4-thiadiazin-5-yl)-3,3,-dimethyl-2H-indol-2-one]

Max ATPase activity (%) (percent change of ATPase activity for pCa=5.47) ([2]; 3 × 10^-5 molar): -9 ± 2%
Ca2+ sensitivity p CA50 (shift of the pCa giving 50% of the maximal control ATPase activity) ([2]; 3 × 10^-5 molar): 0.17 ± 0.03
Structure (SMILES): CC1SC(=O)NN=C1c1ccc2c(c1)C(C)(C)C(=O)N2C(=O)c1ccc(N)cc1 (stereo not shown) [Example 42, 1,3-Dihydro-5-(3,6-dihydro-6-methyl-2-oxo-2H-1,3,4-thiadiazin-5-yl)-3,3-dimethyl-1-[(4-aminophenyl)carbonyl]-2H-indol-2-one]

Structure (SMILES): CC1SC(=O)NN=C1c1ccc2c(c1)C1(CCCC1)C(=O)N2 (stereo not shown) [Example 6, 5'-(3,6-Dihydro-6-methyl-2-oxo-2H-1,3,4-thiadiazin-5-yl)-spiro[cyclopentane-1,3'-[3H]-indol]-2'(1'H)one]
change in vivo at 0.3 mg/kg [1, 3]: 7%
change in vivo at 0.3 mg/kg [1, 4]: 33%

Max ATPase activity (%) (percent change of ATPase activity for pCa=5.47) ([2]; 3 × 10^-5 molar): -4 ± 1%
Ca2+ sensitivity p CA50 (shift of the pCa giving 50% of the maximal control ATPase activity) ([2]; 3 × 10^-5 molar): 0.37 ± 0.11
Structure (SMILES): CSC1(SC)C(=O)Nc2ccc(C3=NNC(=O)SC3C)cc21 (stereo not shown) [Example 15, 1,3-Dihydro-5-(3,6-dihydro-6-methyl-2-oxo-2H-1,3,4-thiadiazin-5-yl)-3.3-di(methylthio)-2H-indol-2 one]
